Assay results reported in US9145412B2, “Selective HDAC1 and HDAC2 inhibitors” (Acetylon Pharmaceuticals, Inc., priority 2012, dated 2015).

Key:
[1] = tested on: human CD34+ bone marrow cells; assay: Cell viability / cytotoxicity in cultured CD34+ cells; assay type: cell-based; details: 1 μM, after 6 days of treatment
Source text: (§1) To investigate whether HDAC1 or HDAC2 was the preferred therapeutic target, two compounds were used.

[2] = tested on: human CD34+ bone marrow cells; assay: Fetal globin (HbG) induction in cultured CD34+ cells undergoing erythroid differentiation; assay type: cell-based; details: for increase in the percentage of HbG relative to other beta-like globin transcripts: 1 μM, treatment of cells for 6 days
Description: CD34+ cells isolated from human bone marrow were cultured in vitro using two distinct sets of culture conditions. Culture system 1 (CS1), described by Xu J et al. (Science 2011 Nov. 18; 334(6058):993-6), consists of a 7 day expansion phase in media that supports hematopoietic progenitor cells followed by a differentiation phase of 4 to 8 days in media that induces development of erythroid lineage cells. Culture system 2 (CS2), described by Bradner J E (Proc Natl Acad Sci USA. 2010 Jul. 13; 107(28):12617-22), consists of a 7 day expansion phase in media that supports differentiation of cells towards the erythroid lineage followed by a differentiation phase for 3 days where erythroid cell development continues. After 3 to 5 days in differentiation media CS1 cells are primarily early erythroblasts (EB), while CS2 cells are primarily late EB. mRNA levels were determine by quantitative real time PCR using primer/probe sets designed to adult major β-globin (β), adult minor β-globin (δ), fetal β-like globin (HbG, γ), and embryonic β-like globin (ε). Protein levels were determined by flow cytometry using fluorescent antibodies against fetal hemoglobin (HbF) or adult hemoglobin (HbA). […] Globin mRNA levels were determined in cells at day 0, 3, 5, and 8 of differentiation. […] Globin mRNA levels were determined at day 3 of differentiation. […] Hemoglobin protein levels within each cell were determined at day 5 of differentiation. […] After 2 days, media was exchanged and cells were differentiated for an additional 2 days in the absence of compound. Hemoglobin protein levels within each cell were determined at day 4 of differentiation.
as §1

HDAC3 = HDAC3 (Homo sapiens (Human), UniProt O15379); assay: HDAC enzyme assay; assay type: biochemical; details: enzyme pre-incubated with compound for 24 hours
Description: (§2) Compounds for testing were diluted in DMSO to 50 fold the final concentration and a ten point three fold dilution series was made. The compounds were diluted in assay buffer (50 mM HEPES, pH 7.4, 100 mM KCl, 0.001% Tween-20, 0.05% BSA, 20 μM tris(2-carboxyethyl)phosphine) to 6 fold their final concentration. The HDAC enzymes (purchased from BPS Biosciences) were diluted to 1.5 fold their final concentration in assay buffer and pre-incubated with the compounds for 24 hours prior to addition of the substrate.
(§3) The substrate tripeptide substrate 3 (synthesized in house) for each enzyme was equal to the Km as determined by a substrate titration curve. The substrates were diluted in assay buffer at 6× their final concentration with 0.3 μM sequencing grade trypsin (Sigma). The substrate/trypsin mix was added to the enzyme/compound mix, the plate was shaken for 60 seconds and placed into a Spectramax M5 microtiter plate reader. The development of fluorescence was monitored for […] and the linear rate of the reaction was calculated. The IC50 was determined using Graph Pad Prism by a four parameter curve fit. The IC50 values obtained for the compounds of this invention are found in Table 1.

HDAC2 = HDAC2 (Homo sapiens (Human), UniProt Q92769); assay: HDAC enzyme assay; assay type: biochemical; details: enzyme pre-incubated with compound for 24 hours
Description: as §2, §3

HDAC1 = HDAC1 (Homo sapiens (Human), UniProt Q13547); assay: HDAC enzyme assay; assay type: biochemical; details: enzyme pre-incubated with compound for 24 hours
Description: as §2, §3

[3] = tested on: human CD34+ bone marrow cells; assay: Erythroid differentiation markers CD71 and glycophorinA; assay type: cell-based; details: 1 μM, 6 days
Source text: as §1

[4] = tested on: early erythroblasts (CD71+, GlyA−); assay: Gene expression profiling, Affymetrix PrimeView GeneChips; assay type: cell-based; details: n=3 vs vehicle
Source text: (§4) Significant enrichment in other gene sets involving targets linked to HbG regulation, including lysine-specific demethylase 1 (LSD1) (Shi L, Nature Medicine, 2012) were identified.

[5] = tested on: late erythroblasts (CD71+, GlyA+); assay: as above; assay type: cell-based
Source text: as §4

Bcl11A mRNA = assay: GeneChip and quantitative real-time PCR time course; assay type: cell-based
Source text: (§5) ChIP-seq data, both by itself and in combination with gene expression data, will provide further insight into the mechanism through which HDAC1/2 regulates HbF synthesis.

Gata2 mRNA = assay: as above; assay type: cell-based
Source text: as §5

Klf2 mRNA = assay: as above; assay type: cell-based
Source text: as §5

Sox6 mRNA = assay: as above; assay type: cell-based
Source text: as §5

Chain of HDAC1 (Q13547 whole entry): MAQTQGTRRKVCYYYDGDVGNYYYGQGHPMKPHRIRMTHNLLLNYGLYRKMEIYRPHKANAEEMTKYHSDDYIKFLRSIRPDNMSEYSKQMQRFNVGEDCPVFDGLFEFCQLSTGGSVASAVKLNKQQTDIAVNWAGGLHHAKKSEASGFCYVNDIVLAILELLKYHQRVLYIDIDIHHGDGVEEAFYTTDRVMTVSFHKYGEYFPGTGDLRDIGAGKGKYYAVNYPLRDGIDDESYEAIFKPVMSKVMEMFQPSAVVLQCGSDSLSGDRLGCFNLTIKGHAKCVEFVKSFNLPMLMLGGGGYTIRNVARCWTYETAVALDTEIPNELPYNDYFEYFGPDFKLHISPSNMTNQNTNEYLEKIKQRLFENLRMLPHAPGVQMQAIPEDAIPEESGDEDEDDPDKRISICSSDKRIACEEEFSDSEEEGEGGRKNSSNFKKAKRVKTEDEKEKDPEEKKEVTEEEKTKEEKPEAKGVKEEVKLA
Chain of HDAC2 (Q92769 whole entry): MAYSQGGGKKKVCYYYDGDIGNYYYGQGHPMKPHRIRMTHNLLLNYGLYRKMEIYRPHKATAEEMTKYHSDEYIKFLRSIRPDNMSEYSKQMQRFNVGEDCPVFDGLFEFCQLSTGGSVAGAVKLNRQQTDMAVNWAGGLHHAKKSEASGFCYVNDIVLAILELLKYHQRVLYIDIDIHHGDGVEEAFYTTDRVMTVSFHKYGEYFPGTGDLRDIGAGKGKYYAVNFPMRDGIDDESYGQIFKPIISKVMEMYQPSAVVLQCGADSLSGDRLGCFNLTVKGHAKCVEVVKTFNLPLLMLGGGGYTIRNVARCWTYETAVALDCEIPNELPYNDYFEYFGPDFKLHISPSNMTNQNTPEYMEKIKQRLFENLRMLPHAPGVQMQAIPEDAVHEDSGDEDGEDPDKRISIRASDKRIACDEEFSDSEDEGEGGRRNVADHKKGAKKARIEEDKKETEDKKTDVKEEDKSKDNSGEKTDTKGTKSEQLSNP
Chain of HDAC3 (O15379 whole entry): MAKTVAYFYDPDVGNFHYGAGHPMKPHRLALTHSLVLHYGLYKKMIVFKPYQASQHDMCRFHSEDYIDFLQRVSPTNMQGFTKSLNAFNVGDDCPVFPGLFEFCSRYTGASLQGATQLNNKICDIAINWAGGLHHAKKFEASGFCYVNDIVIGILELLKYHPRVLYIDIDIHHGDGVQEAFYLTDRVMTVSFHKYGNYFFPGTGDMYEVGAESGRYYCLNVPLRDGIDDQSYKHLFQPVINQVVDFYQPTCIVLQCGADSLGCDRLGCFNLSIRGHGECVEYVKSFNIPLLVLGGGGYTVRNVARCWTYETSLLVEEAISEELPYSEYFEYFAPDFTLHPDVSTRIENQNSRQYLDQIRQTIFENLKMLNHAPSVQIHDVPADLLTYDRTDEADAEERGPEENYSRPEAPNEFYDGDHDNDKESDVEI
Chain of HDAC3 (Q9Y618 395-489 partner): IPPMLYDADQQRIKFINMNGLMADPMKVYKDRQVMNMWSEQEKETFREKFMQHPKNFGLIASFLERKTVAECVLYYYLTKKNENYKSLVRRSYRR

IC50 (HDAC3) | IC50 (HDAC2) | IC50 (HDAC1) | SMILES | decrease in cell viability [1] | increase in the percentage of HbG relative to other beta-like globin transcripts [2] | cells positive for the erythroid differentiation markers CD71 and glycophorinA [3] | probe sets down regulated [4] | probe sets up regulated [4] | total probe set changes [5] | HbG induction in cells positive for both CD71 and GlyA ([2]; follow-up experiments, CD71+ GlyA+ cells) | decrease in Bcl11A mRNA (Bcl11A mRNA) | increase in Gata2 mRNA (Gata2 mRNA) | increase in Klf2 mRNA (Klf2 mRNA) | decrease in Sox6 mRNA (Sox6 mRNA)
247 nM | 24 nM | 27 nM | Nc1ccc(-c2ccncc2)cc1NC(=O)c1ccc2c(c1)cc(C1CC1)n2CCN1CCOCC1 [Compound 004, N-(2-amino-5-(pyridin-4-yl)phenyl)-2-cyclopropyl-1-(2-morpholinoethyl)-1H-indole-5-carboxamide] | 1.2 fold | 3 fold | – | – | – | – | – | – | – | – | –
114 nM | 15 nM | 4 nM | Nc1ccc(-c2cccs2)cc1NC(=O)c1ccc2nc(N3CCNCC3)ccc2c1 [Compound 001, N-(2-amino-5-(thiophen-2-yl)phenyl)-2-(piperazin-1-yl)quinoline-6-carboxamide] | approximately 3 fold | 3 fold | reduction | 681 | 1294 | 255 | unable to induce HbG | 2 fold | 8 fold | 2 fold | 10 fold
